From patent publication US20090318493A1 (Roche Palo Alto LLC, priority 2008, published 2009)
Like-named read-outs stand apart in the source and are kept apart here.

Experiments:
Format in all cases: binding
hNET transporter = biological target: T1, hNET transporter (Homo sapiens, UniProt P23975); test: Human norepinephrine transporter (hNET) scintillation proximity assay, competition with [3H]-Nisoxetine
T1 construct: expressed in transfected cells; membranes prepared
Protocol: This assay was used to determine the affinity of ligands for the hNET transporter by competition with [^3H]-Nisoxetine. As in the hSERT assay of the above example, receptor-containing membranes were pre-coupled to the SPA beads and the binding of the appropriate radioligand to the transporter was measured. The light emission was proportional to the amount of bound radioligand, with unbound radioligand producing no signal.
HEK-293 cells (Tatsumi et al., Eur. J. Pharmacol. 1997, 30, 249-258) stably expressing recombinant hNET (Clone: HEK-hNET #2) were maintained with media (DMEM hi glucose with 10% FBS, 300 μg/ml G418 and 2 mM L-Glutamine) and incubated at 37° C. with 5% CO2. Cells were released from culture flasks using PBS for 1-2 minutes. The cells were subsequently centrifuged at 1000 g's for 5 minutes and resuspended in PBS prior to being used in the membrane preparation.
(§1) Cell membranes were prepared using a membrane preparation buffer of 50 mM TRIS (pH 7.4). Cell membranes were prepared from a single cube (7.5×10^9cells total). Cells were homogenized using a Polytron (setting medium for a 4 second burst). The homogenate was then centrifuged at 48,000×g for 15 minutes, the supernatant subsequently removed and discarded, and the pellet resuspended with fresh buffer. After a second centrifugation, the pellet was re-homogenized and brought to a final volume determined during the assay. Typically, membrane portions were aliquoted in 3-6 mg/mil (w:v). and stored at −80° C.
^3[H] […] Compounds of the invention were diluted from 10 mM to 0.1 nM FAC (10 point curves, whole log /half log dilutions) via a Beckman Biomek 2000 using a serial dilution protocol. The test compounds were then transferred (20 μl/well) and the radioligand was added at 50 μl/well. Membrane and beads were prepared to a ratio of 10 μg: 0.7 mg, with 0.7 mg PVT-WGA Amersham beads (Cat# RPQ0282V) added per well. 130 μl of the membrane: bead mixture was added to the assay plate. The mixtures were allowed to stand at room temperature for one hour, and were then counted on a Packard TopCount LCS, a generic SPA counting protocol settings (Energy Range: Low, Efficiency Mode: Normal, Region A: 1.50-35.00, Region B: 1.50-256.00, Count Time (min.): 0.40, Background Subtract: none, Half-Life Correction: no, Quench Indicator: tSIS, Platemap blank subtraction: No, Cross talk reduction: Off).
The % inhibition was calculated for each compound tested [(Compound CPM at maximum concentration-Non-Specific CPM)/Total CPM*100]. The concentration producing 50% inhibition (IC50) was determined using an iterative non-linear curve fitting technique with Activity Base/Xlfit using the following equation:
(§2) where max=total binding, min=non specific binding, x=concentration (M) of the tested compound and n=Hill slope. The inhibition dissociation constant (Ki) of each compound was determined according to the method of Cheng-Prusoff and then converted into negative logarithm (pKi) of the Ki.

hSERT transporter = biological target: T2, hSERT transporter (Homo sapiens, UniProt P31645); test: Human serotonin transporter (hSERT) scintillation proximity assay, competition with [3H]-Citalopram
T2 construct: expressed in transfected cells; membranes prepared
Source text: Screening for Human Serotonin Transporter (hSERT) Antagonists Using a Scintillation Proximity Assay (SPA)
The screening assay of this example was used to determine the affinity of ligands at the hSERT transporter by competition with [^3H]-Citalopram.
Scintillation Proximity Assay (SPA) works by bringing radioligand within close proximity to the bead's scintillant to stimulate light emission. In this assay, the receptor-containing membranes were pre-coupled to the SPA beads and the binding of the appropriate radioligand to the transporter was measured. The light emission was proportional to the amount of bound radioligand. Unbound radioligand produced no signal as a result of distant proximity to scintillant (lack of energy transfer).
Cells are released from culture flasks using PBS for 1-2 minutes. The cells were subsequently centrifuged at 1000 g's for 5 minutes and resuspended in PBS prior to being used in the membrane preparation.
as §1, with “(7.5×10^9 cells” for “(7.5×10^9cells”, “3 mg/ml” for “3-6 mg/mil”
Compounds of the invention were diluted from 10 mM to 0.1 nM FAC (10 point curves, whole log/half log dilutions) via a Beckman Biomek 2000 using a serial dilution protocol. The test compounds were then transferred (20 μl/well) and the [^3H]-Citalopram radioligand was added at 50 μl/well. Membrane and beads were prepared to a ratio of 10 μg: 0.7 mg, with 0.7 mg PVT-WGA Amersham beads (Cat# RPQ0282V) added per well. 130 μl of the membrane: bead mixture was added to the assay plate.
The % inhibition was calculated for each compound tested [(Compound counts per minute (CPM) at maximum concentration-Non-Specific CPM)/Total CPM*100].
as §2

hDAT = biological target: T3, hDAT (Homo sapiens, UniProt Q01959); test: Human dopamine transporter scintillation proximity assay, competition with [3H]-Vanoxerine
T3 construct: expressed in transfected cells; plated whole cells
Protocol: This assay was used to determine the affinity of ligands for the dopamine transporter by competition with [^3H]-Vanoxerine.
Cells were plated four hours prior to experiment by placing approximately 30,000 cells per well (in PBS) on white, opaque Cell-Tak coated 96 well plates. Extra buffer was apriated from the cell plates using an ELx405 plate washer.
Compounds of the invention were diluted from 10 mM to 0.1 nM FAC (10 point curves, whole log/half log dilutions) via a Beckman Biomek 2000 using a 10-point dilution protocol. The mixtures were allowed to stand at room temperature for 30 minutes, and were then counted on a Packard TopCount LCS, a generic SPA counting protocol settings, Count Time (min.): 0.40, Background Subtract: none, Half-Life Correction: none, Quench Indicator: tSIS, Platemap blank subtraction: none, Cross talk reduction: Off).
The % inhibition was calculated for each compound tested [(Compound CPM at maximum concentration-Non-Specific CPM)/Total CPM*100].
as §2

[1] = Table 1, read-out: pIC50 NET (converted)
[2] = Table 1, read-out: pIC50 SERT (converted)
[3] = Table 1, read-out: pIC50 DAT (converted)

T1 sequence (P23975 whole entry): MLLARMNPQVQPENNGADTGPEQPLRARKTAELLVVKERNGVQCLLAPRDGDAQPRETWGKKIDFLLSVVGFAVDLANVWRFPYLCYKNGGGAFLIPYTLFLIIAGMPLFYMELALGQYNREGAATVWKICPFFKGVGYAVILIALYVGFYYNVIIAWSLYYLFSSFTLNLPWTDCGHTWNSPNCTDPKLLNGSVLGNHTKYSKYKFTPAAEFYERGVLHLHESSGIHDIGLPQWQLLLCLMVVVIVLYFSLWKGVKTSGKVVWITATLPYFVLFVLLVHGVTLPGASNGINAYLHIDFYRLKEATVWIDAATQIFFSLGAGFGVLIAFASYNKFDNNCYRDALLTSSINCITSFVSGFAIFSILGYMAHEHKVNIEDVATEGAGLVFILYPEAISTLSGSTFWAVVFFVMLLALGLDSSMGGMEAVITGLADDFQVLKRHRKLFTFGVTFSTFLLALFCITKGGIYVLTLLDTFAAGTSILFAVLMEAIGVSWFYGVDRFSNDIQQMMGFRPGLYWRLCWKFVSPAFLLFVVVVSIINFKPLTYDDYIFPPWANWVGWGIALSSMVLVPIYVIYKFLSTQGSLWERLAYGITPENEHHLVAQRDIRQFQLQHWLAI
T2 sequence (P31645 whole entry): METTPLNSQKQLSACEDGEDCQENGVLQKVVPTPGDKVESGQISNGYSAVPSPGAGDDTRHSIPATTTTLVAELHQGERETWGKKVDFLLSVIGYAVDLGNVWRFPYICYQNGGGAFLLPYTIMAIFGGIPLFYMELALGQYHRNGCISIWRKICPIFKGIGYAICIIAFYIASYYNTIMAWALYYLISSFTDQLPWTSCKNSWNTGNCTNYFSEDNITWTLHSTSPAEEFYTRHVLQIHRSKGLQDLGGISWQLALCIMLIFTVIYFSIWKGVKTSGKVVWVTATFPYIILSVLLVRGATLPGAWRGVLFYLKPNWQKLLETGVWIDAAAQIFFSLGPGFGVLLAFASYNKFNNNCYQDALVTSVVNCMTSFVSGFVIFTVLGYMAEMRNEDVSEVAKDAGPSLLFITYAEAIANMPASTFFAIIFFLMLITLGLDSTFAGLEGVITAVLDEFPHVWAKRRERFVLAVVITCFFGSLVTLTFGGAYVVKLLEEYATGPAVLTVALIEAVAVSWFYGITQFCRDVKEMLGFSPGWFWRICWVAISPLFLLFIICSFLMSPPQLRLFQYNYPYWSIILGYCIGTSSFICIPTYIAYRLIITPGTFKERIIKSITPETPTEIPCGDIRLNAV
T3 sequence (Q01959 whole entry): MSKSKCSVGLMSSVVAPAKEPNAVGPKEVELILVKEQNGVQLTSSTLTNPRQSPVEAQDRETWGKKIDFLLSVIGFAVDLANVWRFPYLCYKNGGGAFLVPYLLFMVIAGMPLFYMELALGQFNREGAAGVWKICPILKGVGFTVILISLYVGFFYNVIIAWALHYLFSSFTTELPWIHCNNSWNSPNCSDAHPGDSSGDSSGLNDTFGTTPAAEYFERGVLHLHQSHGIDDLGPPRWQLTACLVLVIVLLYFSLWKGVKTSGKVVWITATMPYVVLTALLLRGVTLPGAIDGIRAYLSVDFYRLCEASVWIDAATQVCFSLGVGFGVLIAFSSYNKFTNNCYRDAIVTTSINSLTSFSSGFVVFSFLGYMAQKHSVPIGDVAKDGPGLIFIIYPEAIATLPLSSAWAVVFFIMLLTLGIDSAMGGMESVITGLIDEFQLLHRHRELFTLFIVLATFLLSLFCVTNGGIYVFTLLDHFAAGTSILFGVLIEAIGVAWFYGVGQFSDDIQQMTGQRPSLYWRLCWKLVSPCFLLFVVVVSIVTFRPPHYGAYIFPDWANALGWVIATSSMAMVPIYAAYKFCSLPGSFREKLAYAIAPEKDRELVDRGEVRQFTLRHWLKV

CC[C@]1(C(=O)c2ccc(Cl)c(Cl)c2)CC[C@@H]2CC[C@H]1N2 [Compound 49, (3,4-Dichloro-phenyl)-((1R,2S,5R)-2-ethyl-8-aza-bicyclo[3.2.1]oct-2-yl)-methanone]
IC50 (hNET transporter; [1]): 5130 nM | IC50 (hSERT transporter): 631 nM | IC50 (hDAT): 1580 nM

CCC1(C(=O)c2ccc(Cl)c(Oc3ccccc3)c2)CCNC1 (stereo not shown) [Compound 19, (4-Chloro-3-phenoxy-phenyl)-(3-ethyl-pyrrolidin-3-yl)-methanone]
IC50 (hNET transporter; [1]): 26.3 nM | IC50 (hSERT transporter): 57.5 nM | IC50 (hDAT): 7.59 nM

CC(C)CC1(C(=O)c2ccc(Cl)c(Oc3ccccc3)c2)CCNC1 (stereo not shown) [Compound 31, (4-Chloro-3-phenoxy-phenyl)-(3-isobutyl-pyrrolidin-3-yl)-methanone]
IC50 (hNET transporter; [1]): 1.91 nM | IC50 (hSERT transporter): 3.72 nM | IC50 (hDAT): 26.3 nM

Cc1ccc(C(=O)C2(CCC(C)C)CCNCC2)cc1Cl [Compound 38, (3-Chloro-4-methyl-phenyl)-[4-(3-methyl-butyl)-piperidin-4-yl]-methanone]
IC50 (hNET transporter; [1]): 135 nM | IC50 (hSERT transporter; [2]): 3.47 nM | IC50 (hDAT; [3]): 14.8 nM

CC(C)(C)CCOc1cc(C(=O)C2(CCC(C)(C)C)CCNC2)ccc1Cl (stereo not shown) [Compound 4, [4-Chloro-3-(3,3-dimethyl-butoxy)-phenyl]-[3-(3,3-dimethyl-butyl)-pyrrolidin-3-yl]-methanone]
IC50 (hNET transporter; [1]): 912 nM | IC50 (hSERT transporter; [2]): 85.1 nM | IC50 (hDAT; [3]): 1000 nM

O=C(c1ccc(Cl)c(Cl)c1)C1(CC2CCCO2)CCNCC1 (stereo not shown) [Compound 42, (3,4-Dichloro-phenyl)-[4-(tetrahydro-furan-2-ylmethyl)-piperidin-4-yl]-methanone]
IC50 (hNET transporter; [1]): 47.9 nM | IC50 (hSERT transporter): 1 nM | IC50 (hDAT): 3.63 nM

O=C(c1ccccc1)C1(Cc2ccc(Cl)c(Cl)c2)CCNCC1 [Compound 43, [4-(3,4-Dichloro-benzyl)-piperidin-4-yl]-phenyl-methanone]
IC50 (hNET transporter; [1]): 1510 nM | IC50 (hSERT transporter): 75.9 nM | IC50 (hDAT; [3]): 575 nM

CC(C)(C)CCC1(C(=O)c2cc(Cl)c(N)c(C(F)(F)F)c2)CCNC1 (stereo not shown) [Compound 7, (4-Amino-3-chloro-5-trifluoromethyl-phenyl)-[3-(3,3-dimethyl-butyl)-pyrrolidin-3-yl]-methanone]
IC50 (hNET transporter): 15.8 nM | IC50 (hSERT transporter): 38 nM | IC50 (hDAT; [3]): 955 nM

CC(C)CC[C@@]1(C(=O)c2cc(F)c(N)c(Cl)c2)CCNC1 [Compound 21, (4-Amino-3-chloro-5-fluoro-phenyl)-[(R)-3-(3-methyl-butyl)-pyrrolidin-3-yl]-methanone]
IC50 (hNET transporter; [1]): 1.91 nM | IC50 (hSERT transporter): 3.31 nM | IC50 (hDAT): 1.51 nM

CCCC1(C(=O)c2ccc(Br)c(Oc3ccccc3)c2)CCNC1 (stereo not shown) [Compound 20, (4-Bromo-3-phenoxy-phenyl)-(3-propyl-pyrrolidin-3-yl)-methanone]
IC50 (hNET transporter; [1]): 7.94 nM | IC50 (hSERT transporter): 12.6 nM

CCCC1(C(=O)c2ccc(Cl)c(-c3cccnc3)c2)CCCNC1 (stereo not shown) [Compound 55, (4-Chloro-3-pyridin-3-yl-phenyl)-(3-propyl-piperidin-3-yl)-methanone]
IC50 (hSERT transporter; [2]): 245 nM

CCCC1(C(=O)c2ccc(Cl)cc2Oc2ccccc2)CCNCC1 [Compound 40, (4-Chloro-2-phenoxy-phenyl)-(4-propyl-piperidin-4-yl)-methanone]
IC50 (hNET transporter; [1]): 27.5 nM | IC50 (hSERT transporter; [2]): 69.2 nM | IC50 (hDAT; [3]): 1480 nM

CC(C)CC[C@]1(C(=O)c2cc(F)c(N)c(Cl)c2)CCNC1 [Compound 22, (4-Amino-3-chloro-5-fluoro-phenyl)-[(S)-3-(3-methyl-butyl)-pyrrolidin-3-yl]-methanone]
IC50 (hNET transporter): 33.1 nM | IC50 (hSERT transporter; [2]): 132 nM | IC50 (hDAT): 83.2 nM

CC(C)(C)CC[C@]1(C(=O)c2ccc(Cl)c(Cl)c2)CCCNC1 [Compound 59, (3,4-Dichloro-phenyl)-[(S)-3-(3,3-dimethyl-butyl)-piperidin-3-yl]-methanone]
IC50 (hNET transporter): 10.5 nM | IC50 (hSERT transporter): 14.5 nM | IC50 (hDAT; [3]): 324 nM

CC(C)(C)CCC1(C(=O)c2ccc(Cl)c(Oc3ccccc3F)c2)CCNC1 (stereo not shown) [Compound 9, [4-Chloro-3-(2-fluoro-phenoxy)-phenyl]-[3-(3,3-dimethyl-butyl)-pyrrolidin-3-yl]-methanone]
IC50 (hNET transporter; [1]): 45.7 nM | IC50 (hDAT; [3]): 1120 nM

CCCC1(C(=O)c2ccc(Cl)c(OCc3ccccc3)c2)CCNC1 (stereo not shown) [Compound 10, (3-Benzyloxy-4-chloro-phenyl)-(3-propyl-pyrrolidin-3-yl)-methanone]
IC50 (hNET transporter; [1]): 1700 nM | IC50 (hSERT transporter): 20.4 nM

CCCC1(C(=O)c2ccc(Cl)c(-n3ccnc3)c2)CCCNC1 (stereo not shown) [Compound 58, (4-Chloro-3-imidazol-1-yl-phenyl)-(3-propyl-piperidin-3-yl)-methanone]
IC50 (hSERT transporter): 79.4 nM | IC50 (hDAT; [3]): 1480 nM

CC(C)(C)CCC1(C(=O)c2ccc(Cl)c(OCc3ccccc3)c2)CCNC1 (stereo not shown) [Compound 5, (3-Benzyloxy-4-chloro-phenyl)-[3-(3,3-dimethyl-butyl)-pyrrolidin-3-yl]-methanone]
IC50 (hNET transporter; [1]): 363 nM | IC50 (hDAT; [3]): 1450 nM

CCCC1(C(=O)c2ccc(Cl)c(OCC3CCOCC3)c2)CCNC1 (stereo not shown) [Compound 13, [4-Chloro-3-(tetrahydro-pyran-4-ylmethoxy)-phenyl]-(3-propyl-pyrrolidin-3-yl)-methanone]
IC50 (hSERT transporter; [2]): 145 nM

CC[C@@]1(C(=O)c2ccc(Cl)c(Cl)c2)CC[C@@H]2CC[C@H]1N2C [Compound 53, (3,4-Dichloro-phenyl)-((1R,2R,5R)-2-ethyl-8-methyl-8-aza-bicyclo[3.2.1]oct-2-yl)-methanone]
IC50 (hSERT transporter): 41.7 nM | IC50 (hDAT): 288 nM

CCCC1(C(=O)c2ccc(Cl)c(OC(F)(F)F)c2)CCNC1 (stereo not shown) [Compound 14, (4-Chloro-3-trifluoromethoxy-phenyl)-(3-propyl-pyrrolidin-3-yl)-methanone]
IC50 (hNET transporter; [1]): 302 nM | IC50 (hSERT transporter): 2.75 nM

CCCC1(C(=O)c2ccc(-n3ccnc3)c(Br)c2)CCCNC1 (stereo not shown) [Compound 57, (3-Bromo-4-imidazol-1-yl-phenyl)-(3-propyl-piperidin-3-yl)-methanone]
IC50 (hSERT transporter): 91.2 nM | IC50 (hDAT; [3]): 4270 nM

CCCC1(C(=O)c2ccc3ccccc3c2)CCNC1 (stereo not shown) [naphthalen-2-yl-(3-propyl-pyrrolidin-3-yl)-methanone]
Ki (hSERT transporter; SPA, [3H]-Citalopram, approximate value, read-out: pKi human serotonin transporter (converted)): ~0.151 nM
